Data published in patent publication US20260232682A1, “GSPT1 DEGRADER COMPOUNDS” (Captor Therapeutics S.A., priority 2023, published 2026).

Experiments:
[1] = molecular target: T1, [IKZF2 ZF2]-[compound]-[CRBN/DDB1] ternary complex (Homo sapiens, UniProt Q96SW2+Q9UKS7); test: AlphaLISA assay for off-target recruitment detection, IKZF2 ZF2; type: binding; settings: 1 μM compound, normalized to Helios modulator; for activation at 1 µM: read-out: Normalized ternary complex response, IKZF2 ZF2
T1 construct: IKZF2 ZF2
T1 sequence (Q9UKS7 140-162 limits assumed): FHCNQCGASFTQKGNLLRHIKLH
T1 sequence (Q96SW2 whole entry): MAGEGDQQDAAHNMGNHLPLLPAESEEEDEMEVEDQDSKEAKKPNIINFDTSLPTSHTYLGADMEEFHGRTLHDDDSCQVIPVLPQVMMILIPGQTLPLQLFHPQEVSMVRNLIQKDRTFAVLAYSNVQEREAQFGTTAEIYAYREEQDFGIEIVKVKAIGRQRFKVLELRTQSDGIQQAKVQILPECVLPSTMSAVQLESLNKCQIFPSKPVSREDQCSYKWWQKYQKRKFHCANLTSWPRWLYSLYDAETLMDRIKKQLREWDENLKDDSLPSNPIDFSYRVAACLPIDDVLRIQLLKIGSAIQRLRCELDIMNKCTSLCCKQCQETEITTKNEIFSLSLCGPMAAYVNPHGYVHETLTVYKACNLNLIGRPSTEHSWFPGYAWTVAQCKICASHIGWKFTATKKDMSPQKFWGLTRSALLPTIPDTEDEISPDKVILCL
T1 sequence (Q16531 whole entry partner): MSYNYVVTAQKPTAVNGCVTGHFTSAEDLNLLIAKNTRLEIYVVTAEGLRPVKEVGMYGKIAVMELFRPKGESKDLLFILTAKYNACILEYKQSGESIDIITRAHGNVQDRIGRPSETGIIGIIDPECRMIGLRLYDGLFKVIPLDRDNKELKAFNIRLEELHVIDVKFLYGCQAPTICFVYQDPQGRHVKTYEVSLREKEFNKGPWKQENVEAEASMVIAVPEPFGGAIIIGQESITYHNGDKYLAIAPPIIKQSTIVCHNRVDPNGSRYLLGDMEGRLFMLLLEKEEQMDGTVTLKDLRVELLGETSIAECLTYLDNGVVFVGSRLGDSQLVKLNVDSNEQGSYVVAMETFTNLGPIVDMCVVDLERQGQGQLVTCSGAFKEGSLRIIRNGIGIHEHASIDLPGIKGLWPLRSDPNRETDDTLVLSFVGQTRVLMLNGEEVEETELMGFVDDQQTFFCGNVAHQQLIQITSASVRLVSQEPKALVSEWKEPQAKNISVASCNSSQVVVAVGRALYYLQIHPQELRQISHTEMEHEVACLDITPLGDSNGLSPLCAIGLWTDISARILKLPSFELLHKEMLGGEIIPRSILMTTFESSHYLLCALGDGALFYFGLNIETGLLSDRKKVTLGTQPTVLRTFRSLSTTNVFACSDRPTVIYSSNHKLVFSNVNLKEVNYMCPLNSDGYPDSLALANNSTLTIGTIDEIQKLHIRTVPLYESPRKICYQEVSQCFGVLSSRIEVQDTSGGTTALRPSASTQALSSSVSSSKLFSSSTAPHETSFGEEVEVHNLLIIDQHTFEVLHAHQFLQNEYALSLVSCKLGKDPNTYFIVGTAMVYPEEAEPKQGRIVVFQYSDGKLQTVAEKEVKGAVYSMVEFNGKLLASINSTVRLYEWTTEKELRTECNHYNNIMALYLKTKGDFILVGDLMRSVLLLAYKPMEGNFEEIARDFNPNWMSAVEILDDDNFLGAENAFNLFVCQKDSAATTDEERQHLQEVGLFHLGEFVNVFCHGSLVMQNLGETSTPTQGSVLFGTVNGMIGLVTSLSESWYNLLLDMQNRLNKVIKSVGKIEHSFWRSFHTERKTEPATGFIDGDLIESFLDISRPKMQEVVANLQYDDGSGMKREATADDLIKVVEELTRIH
Description: (§1) The ability of the molecular glue compounds of the invention to mediate the proximity of CRBN with its known neo-substrates (shown in Table 3) was assessed using AlphaLISA to detect the formation of a [neo-substrate]-[compound of formula (I)]-[CRBN/DDB1] ternary complex.
(§2) Two types of protein solution were prepared: • neo-substrate, 40 μg/ml AlphaScreen Donor Beads (Table 3) in PBS (10 mM phosphate buffer, 137 mM NaCL, 2.7 mM KCl, pH 7.4) buffer supplemented with Tween-20 (Table 3) and 1 mM DTT, • 200 nM 6×His-CRBN/DDB1, 40 μg/ml AlphaLISA Anti-6×His Acceptor beads in PBS buffer with Tween-20 (Table 3) and 1 mM DTT.
(§3) The prepared solutions were incubated at room temperature for 30 min and then the solution containing the donor beads was mixed with the solution containing the acceptor beads.
(§4) The tested compounds were dispensed onto a white 384-well AlphaPlate 384 SW. DMSO was backfilled to all wells, resulting in a final DMSO content of 2%. Wells containing only DMSO served as background. Next, 10 μl of solution with donor and acceptor beads was added to the wells.
(§5) The plate was sealed with transparent film and shaken using a VibroTurbulator for 60 sec at room temperature, level 3. The plate was then spun down shortly (10 sec, 1000 rcf, room temperature) and incubated at 25° C. for 30 min.
(§6) The read-out was performed with PerkinElmer Enspire Multimode Plate Reader (method for AlphaLISA 384-well low volume, Filterset: λexc=680 nm, λem=615 nm).
(§7) The results were analyzed as follows: • 1) an average of luminescence for background signal was calculated and used as a negative control; • 2) an average of the maximum measured luminescence for reference compound (Table 3) was calculated and used as an internal positive control; • 3) raw luminescence values were normalized against positive and negative controls; • 4) Normalized responses to reference molecular glue were determined.

[2] = molecular target: T2, [SALL4 ZF2]-[compound]-[CRBN/DDB1] ternary complex (Homo sapiens, UniProt Q96SW2+Q9UJQ4); test: AlphaLISA assay for off-target recruitment detection, SALL4 ZF2; type: binding; settings: 1 μM compound, normalized to Lenalidomide; for activation at 1 µM: read-out: Normalized ternary complex response, SALL4 ZF2
T2 construct: SALL4 ZF2
T2 sequence (Q9UJQ4 410-432 limits assumed): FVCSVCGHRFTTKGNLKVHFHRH
T2 sequence (Q96SW2 whole entry): as the sequence (Q96SW2 whole entry) above
T2 sequence (Q16531 whole entry partner): as the sequence (Q16531 whole entry partner) above
Description: as §1, §2, §3, §4, §5, §6, §7

[3] = molecular target: T3, [IKZF1 ZF2]-[compound]-[CRBN/DDB1] ternary complex (Homo sapiens, UniProt Q13422+Q96SW2); test: AlphaLISA assay for off-target recruitment detection, IKZF1 ZF2; type: binding; settings: 1 μM compound, normalized to Lenalidomide; for activation at 1 µM: read-out: Normalized ternary complex response, IKZF1 ZF2
T3 construct: IKZF1 ZF2
T3 sequence (Q13422 145-167 limits assumed): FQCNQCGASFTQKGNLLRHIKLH
T3 sequence (Q96SW2 whole entry): as the sequence (Q96SW2 whole entry) above
T3 sequence (Q16531 whole entry partner): as the sequence (Q16531 whole entry partner) above
Description: as §1, §2, §3, §4, §5, §6, §7

[4] = molecular target: [CK1α]-[compound]-[CRBN/DDB1] ternary complex (Homo sapiens, UniProt P48729+Q96SW2); test: AlphaLISA assay for off-target recruitment detection, CK1α; type: binding; settings: 1 μM compound, normalized to FPFT-2216; for activation at 1 µM: read-out: Normalized ternary complex response, CK1α
Chain of [CK1α]-[compound]-[CRBN/DDB1] ternary complex (P48729 whole entry): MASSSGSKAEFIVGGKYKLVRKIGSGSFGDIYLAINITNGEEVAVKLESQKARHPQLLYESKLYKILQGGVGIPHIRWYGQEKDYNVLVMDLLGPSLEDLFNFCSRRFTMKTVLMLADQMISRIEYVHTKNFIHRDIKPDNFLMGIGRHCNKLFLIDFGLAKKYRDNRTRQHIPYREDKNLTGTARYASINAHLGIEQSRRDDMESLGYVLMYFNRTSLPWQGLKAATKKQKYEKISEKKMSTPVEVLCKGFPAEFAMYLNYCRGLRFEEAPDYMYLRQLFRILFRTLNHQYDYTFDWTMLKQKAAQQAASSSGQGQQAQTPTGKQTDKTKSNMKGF
Chain of [CK1α]-[compound]-[CRBN/DDB1] ternary complex (Q96SW2 whole entry): as the sequence (Q96SW2 whole entry) above
Chain of [CK1α]-[compound]-[CRBN/DDB1] ternary complex (Q16531 whole entry partner): as the sequence (Q16531 whole entry partner) above
Description: as §1, §2, §3, §4, §5, §6, §7

[5] = molecular target: T4, [GSPT1]-[compound of formula (I)]-[CRBN/DDB1] complex (Homo sapiens, UniProt P15170+Q96SW2); test: HTRF ternary complex assay (GSPT1); type: binding; settings: read-out: HTRF ternary complex Average pEC50 by molecule (converted)
T4 sequence (P15170 whole entry): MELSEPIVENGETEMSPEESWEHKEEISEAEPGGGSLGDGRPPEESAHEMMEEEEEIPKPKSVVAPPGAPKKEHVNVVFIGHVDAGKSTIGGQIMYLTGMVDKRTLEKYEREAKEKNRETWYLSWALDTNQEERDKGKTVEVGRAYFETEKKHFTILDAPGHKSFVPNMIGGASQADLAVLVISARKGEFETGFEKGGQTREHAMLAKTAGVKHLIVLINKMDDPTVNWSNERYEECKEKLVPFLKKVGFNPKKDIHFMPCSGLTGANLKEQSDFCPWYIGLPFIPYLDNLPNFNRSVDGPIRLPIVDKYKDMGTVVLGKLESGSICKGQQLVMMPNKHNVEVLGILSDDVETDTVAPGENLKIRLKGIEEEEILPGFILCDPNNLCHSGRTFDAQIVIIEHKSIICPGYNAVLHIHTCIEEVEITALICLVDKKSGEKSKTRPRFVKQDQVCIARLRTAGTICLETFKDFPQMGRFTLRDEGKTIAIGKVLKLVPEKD
T4 sequence (Q96SW2 whole entry): as the sequence (Q96SW2 whole entry) above
T4 sequence (Q16531 whole entry partner): as the sequence (Q16531 whole entry partner) above
Description: The effect of the molecular glue compounds of the invention on the formation of a ternary complex composed of [GSPT1]-[compound of formula (I)]-[CRBN/DDB1] was investigated.
Mix solution of proteins and reagents was prepared: • 48 nM GSPT1, 52.8 nM 6×His-CRBN/DDB1, 3 nM of Streptavidin-Eu cryptate ([…]) and 6.67 nM of Anti-6×his-d2 ([…]) was prepared in PPI Europium detection buffer (purchased from Cisbio) with 1 mM DTT.
The tested compounds in dose-response were dispensed onto a white 384-well low volume plate (Greiner, 784075). DMSO was backfilled to all wells, resulting in a final DMSO content of 0.5%. Wells containing only DMSO served as background.
The plate was sealed with transparent film and shaken using a VibroTurbulator for 60 sec at level 3.
The plate was then spun down shortly (10 sec, 1000 rcf) and incubated at 25° C. for 180 min.
The read-out was performed with plate reader (Pherastar, BMG Labtech) in time resolved fluorescence mode. Filter settings: TR 337 665 620.
The results were analyzed as follows: • 1) an average of fluorescence for background signal was calculated and used as a negative control; • 2) raw fluorescence values for tested compounds were normalized against negative controls; • 3) saturation curve was fitted to specific binding with Hill slope model; • 4) EC50 and pEC50 values were determined.

[6] = molecular target: CRBN/DDB1 protein complex (Homo sapiens, UniProt Q96SW2); test: CRBN displacement TR-FRET assay; settings: Thalidomide-Red tracer, 6×His-CRBN/DDB1; read-out: CRBN binding Ki
Chain of CRBN/DDB1 protein complex (Q96SW2 whole entry, species assumed): as the sequence (Q96SW2 whole entry) above
Chain of CRBN/DDB1 protein complex (Q16531 whole entry partner, species assumed): as the sequence (Q16531 whole entry partner) above
Description: CRBN/DDB1 protein complex was mixed with Thalidomide-Red and a compound to be tested (the “test compound”). The test solution contained PPI Europium detection buffer, 1 mM DTT, 6.8 nM Thalidomide-Red (the tracer), 5 nM 6×His-CRBN/DDB1 protein, 0.5 nM Anti-6× His-Eu cryptate, 1% DMSO. The test solution was added to a 384-well assay plate.
The plate was spun-down (1 min, 1000 rpm, 22° C.) and then shaken using a VibroTurbulator for 30 sec at room temperature (20-25° C.), with the frequency set to level 10. The assay plate with protein and the tracer was incubated for 180 min at room temperature (20-25° C.) prior to read-out with a plate reader. The read-out was performed with plate reader (Pherastar, BMG Labtech) in time resolved fluorescence mode. Filter settings: TR 337 665 620.
The CRBN displacement TR-FRET experiment was carried out with various concentrations of the test compounds in order to measure Ki values.
The Ki values of competitive inhibitors were calculated using the equation based on the IC50 values of relationship between compound concentration and measured […], the Kd value of the Thalidomide-Red and CRBN/DDB1 complex, and the concentrations of the protein and the tracer in the displacement assay (as described by Cheng and Prusoff, Biochem Pharmacol 1973; 22:3099-3108).

[7] = molecular target: T4, [GSPT1]-[compound of formula (I)]-[CRBN/DDB1] complex; test: AlphaLISA ternary complex formation assay (GSPT1); type: binding; settings: 0.5 h; 1 μM compound; normalized to reference compound CC-885; read-out: Normalized AlphaLISA ternary complex average signal at 1 μM molecule
Description: The effect of the molecular glue compounds of the invention on the formation of a ternary complex composed of [GSPT1]-[compound of formula (I)]-[CRBN/DDB1] was investigated with two methods: AlphaLISA dose response assay or HTRF ternary complex assay.
Two types of protein solution were prepared: • 200 nM biotinylated GSPT1 (Table 3), 40 μg/ml AlphaScreen Streptavidin-coated Donor Beads in HBS (10 mM HEPES, 150 mM NaCL, pH 7.4) buffer with 0.1% Tween-20 and 1 mM DTT, • 200 nM 6×His-CRBN/DDB1, 40 μg/ml AlphaLISA Anti-6×His Acceptor beads in HBS buffer with 0.1% Tween-20 and 1 mM DTT.
as §3, §4, §5, §6
as §7, with “2)” for “2) an”, “(structure shown in Table 3 below)” for “(Table 3)”, “positive control” for “reference molecular glue”

| SMILES | Normalized ternary complex response, IKZF2 ZF2 [1] | Normalized ternary complex response, SALL4 ZF2 [2] | Normalized ternary complex response, IKZF1 ZF2 [3] | Normalized ternary complex response, CK1α [4] | activation at 1 µM [1] [%] | EC50 [5] [nM] | activation at 1 µM [2] [%] | activation at 1 µM [3] [%] | Ki [6] [nM] | activation at 1 µM [4] [%] | activation at 1 µM [7] [%] |
| --- | --- | --- | --- | --- | --- | --- | --- | --- | --- | --- | --- |
| Cc1ccc(NC(=O)NCc2ccc3c(c2)CN(C2CCC(=O)NC2=O)C3=O)cc1Cl (centres unmarked) [CC-885, reference compound] | A (A≥50%) | A (A≥50%) | A (A≥50%) | C (10%≤C<25%) | – | – | – | – | – | – | – |
| Cc1ccc(Nc2c(NCc3ccc4cc(C5CCC(=O)NC5=O)c(C)nc4c3)c(=O)c2=O)cc1Cl (centres unmarked) [Compound 3, 3-(7-(((2-((3-chloro-4-methylphenyl)amino)-3,4-dioxocyclobut-1-en-1-yl)amino)methyl)-2-methylquinolin-3-yl)piperidine-2,6-dione] | – | – | – | – | < 10 | > 3160 | < 10 | < 10 | > 1000 | < 10 | 10 to 50 |
| Cc1nc2ccc(COC(=O)Nc3cc(OC(F)(F)F)ccc3F)cc2cc1C1CCC(=O)NC1=O (centres unmarked) [Compound 7, (3-(2,6-dioxopiperidin-3-yl)-2-methylquinolin-6-yl)methyl (2-fluoro-5-(trifluoromethoxy)phenyl)carbamate] | – | – | – | – | < 10 | > 3160 | ≥ 50 | 25 to 50 | < 500 | < 10 | 10 to 50 |
| Cc1ccc(NCC(=O)NCc2ccc3nc(C)c(C4CCC(=O)NC4=O)cc3c2)cc1Cl (centres unmarked) [Compound 26, 2-((3-chloro-4-methylphenyl)amino)-N-((3-(2,6-dioxopiperidin-3-yl)-2-methylquinolin-6-yl)methyl)acetamide] | – | – | – | – | < 10 | 316 to 3160 | 25 to 50 | < 10 | 500 to 1000 | < 10 | 10 to 50 |
| Cc1ccc(NC(=O)C(C)Oc2ccc3cc(C4CCC(=O)NC4=O)c(C)nc3c2)cc1Cl (centres unmarked) [Compound 34, N-(3-chloro-4-methylphenyl)-2-((3-(2,6-dioxopiperidin-3-yl)-2-methylquinolin-7-yl)oxy)propenamide] | – | – | – | – | < 10 | > 3160 | < 10 | < 10 | 500 to 1000 | < 10 | < 10 |
| Cc1nc2ccc(CNC(=O)NC3CCCCC3)cc2cc1N1CCC(=O)NC1=O [Compound 52, 1-cyclohexyl-3-((3-(2,4-dioxotetrahydropyrimidin-1(2H)-yl)-2-methylquinolin-6-yl)methyl)urea] | – | – | – | – | 10 to 25 | 316 to 3160 | ≥ 50 | 25 to 50 | > 1000 | < 10 | 10 to 50 |

Now from value to compound:

| Normalized ternary complex response, IKZF2 ZF2 [1] | Normalized ternary complex response, SALL4 ZF2 [2] | Normalized ternary complex response, IKZF1 ZF2 [3] | Normalized ternary complex response, CK1α [4] | activation at 1 µM [1] [%] | EC50 [5] [nM] | activation at 1 µM [2] [%] | activation at 1 µM [3] [%] | Ki [6] [nM] | activation at 1 µM [4] [%] | activation at 1 µM [7] [%] | SMILES |
| --- | --- | --- | --- | --- | --- | --- | --- | --- | --- | --- | --- |
| – | – | – | – | 10 to 25 | < 316 | ≥ 50 | 25 to 50 | < 500 | < 10 | > 50 | Cc1nc2ccc(CNC(=O)C(=O)c3ccc(C(C)(C)C)cc3)cc2cc1C1CCC(=O)NC1=O (centres unmarked) [Compound 1, 2-(4-(tert-butyl)phenyl)-N-((3-(2,6-dioxopiperidin-3-yl)-2-methylquinolin-6-yl)methyl)-2-oxoacetamide] |
| – | – | – | – | < 10 | > 3160 | < 10 | < 10 | < 500 | < 10 | 10 to 50 | Cc1ccc(-c2nnc(NCc3ccc4cc(C5CCC(=O)NC5=O)c(C)nc4c3)o2)cc1Cl (centres unmarked) [Compound 13, 3-(7-(((5-(3-chloro-4-methylphenyl)-1,3,4-oxadiazol-2-yl)amino)methyl)-2-methylquinolin-3-yl)piperidine-2,6-dione] |
| – | – | – | – | < 10 | > 3160 | 25 to 50 | < 10 | < 500 | < 10 | 10 to 50 | Cc1nc2ccc(CNC(=O)C(=O)N3CCC(C(C)(C)C)CC3)cc2cc1C1CCC(=O)NC1=O (centres unmarked) [Compound 23, 2-(4-(tert-butyl)piperidin-1-yl)-N-((3-(2,6-dioxopiperidin-3-yl)-2-methylquinolin-6-yl)methyl)-2-oxoacetamide] |
| – | – | – | – | < 10 | > 3160 | < 10 | < 10 | < 500 | < 10 | < 10 | Cc1nc2cc(OC(C)C(=O)NC3CCCCC3)ccc2cc1C1CCC(=O)NC1=O (centres unmarked) [Compound 36, N-cyclohexyl-2-((3-(2,6-dioxopiperidin-3-yl)-2-methylquinolin-7-yl)oxy)propenamide] |
| – | – | – | – | < 10 | > 3160 | < 10 | < 10 | < 500 | < 10 | 10 to 50 | Cc1nc2cc(COC(=O)NC3CCN(c4ccccc4)CC3)ccc2cc1C1CCC(=O)NC1=O (centres unmarked) [Compound 47, (3-(2,6-dioxopiperidin-3-yl)-2-methylquinolin-7-yl)methyl (1-phenylpiperidin-4-yl)carbamate] |
